The values below come from patent publication US10023593B2, “ALK kinase inhibitor, and preparation method and uses thereof” (BEIJING PEARL BIOTECHNOLOGY LIMITED LIABILITY COMPANY, priority 2014, dated 2018).

In one assay the target is T1, L1196M mutant ALK kinase (Homo sapiens, UniProt Q9UM73, L1196M).
T1 construct: purchased Sino-US Crown Bioscience, Inc. batch number ALKm_20110923
The assay can be described thus: HTRF KinEASE-TK assay, inhibitory activity on L1196M mutant ALK kinase. Type of assay: biochemical. Particulars: L1196M mutant ALK 1 ng/μl, substrate 1 μM, ATP 5 μM, 30° C. 35 minutes, read-out: Inhibition on ALK kinases (L1196M mutant), IC50. The essentials: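 HTRF TK assay: mutant kinase 1 ng/μl, substrate 1 μM, ATP 5 μM, 5 mM MgCl2, 1 mM DTT, 1% DMSO, 35 min at 30 °C. 665/615 ratio read; inhibition normalised to no-compound and 10.4 μM LDK-378 controls; IC50 from curve fit.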
A general note: In TR-FRET formats the signal depends on donor and acceptor labels being close together.

A further assay concerns Karpas-299 cell line. The assay can be described thus: CellTiter-Glo cell proliferation inhibition on Karpas-299 cell line. Type of assay: cell-based. The settings on record: Homo sapiens, 96 h, Karpas-299 cells, 5000 cells/well, 4 days drug treatment. The protocol: 4. Cell Proliferation Inhibitory Activities of the Compounds of the Present Invention on Karpas-299 Cell Line
? experimental method ? CellTiter-Glo® Luminescent Cell Viability Assay kit from Promega company was used to detect cell proliferation inhibitory activities of the compounds on Karpas-299 cell line.
? instrument ? Envision 2104 plate reader from PerKinElmer company; Vi-Cell XR cell counter from Beckman Counter company; MCO-18AIC CO2 incubator from SANYO company.
? experiment material ? CellTiter-Glo® Luminescent Cell Viability Assay Kit (Promega company, catalog No. G7573); Karpas-299 cell line (DSMZ, catalog No. ACC31); RPMI-1640 medium (HyClone company, catalog No. SH30809.01B); fetal bovine serum (FBS) (Gibco company, catalog No. 10099-141); PBS (HyClone company, catalog No. SH30256.01B); 96 wells cell culture plate (Corning company, catalog No. 3610); DMSO (AMRESCO company, catalog No. 0231); 96 wells plates (for diluting compounds) (CITOTEST company, catalog No. Ref36020096D);
? experimental condition ? Karpas-299 cells in exponential growth phase were collected and viable cells were counted by Vi-Cell XR cell counter. Cell suspension was adjusted to 62500 cells/ml with culture medium (RPMI-1640+10% FBS). 80 μl cell suspension was added into each well of 96 wells cell culture plate so that so that the final cell number of Karpas-299 cells was 5000 cells/well. The cells were cultivated in an incubator with an atmosphere of 37° C., 5% CO2 and 95% humidity for 2 hours and then each well was added with 20 μl compounds in RPMI-1640 medium solution (the final concentration of DMSO was 0.5%). 4 days after drug treatment, each well was added with 50 μl CellTiter-Glo solution which was previously thawed and equilibrated to room temperature, and mixed for 2 minutes with microplate shaker. After placing at room temperature for 10 minutes, luminescence reading value was measured with PerkinElmer Envision 2104 plate reader and the data was analyzed.
? tested samples ? Compounds of the examples.
Luminescence value of DMSO solvent control (Vvehicle control, which is the mean luminescence value from DMSO solvent control group)
Tested luminescence value (Vsample, which is the luminescence value from given concentration of compounds group) Inhibition rate (%)=(1−Vsample/Vvehicle control)×100
? data processing ? IC50 of compounds was calculated by using XLfit program in Excel.
In general terms: In ATP-based viability assays light output follows the ATP content of the culture.

Molecules are shown by their SMILES.

T1 sequence (Q9UM73 19-1620 L1196M): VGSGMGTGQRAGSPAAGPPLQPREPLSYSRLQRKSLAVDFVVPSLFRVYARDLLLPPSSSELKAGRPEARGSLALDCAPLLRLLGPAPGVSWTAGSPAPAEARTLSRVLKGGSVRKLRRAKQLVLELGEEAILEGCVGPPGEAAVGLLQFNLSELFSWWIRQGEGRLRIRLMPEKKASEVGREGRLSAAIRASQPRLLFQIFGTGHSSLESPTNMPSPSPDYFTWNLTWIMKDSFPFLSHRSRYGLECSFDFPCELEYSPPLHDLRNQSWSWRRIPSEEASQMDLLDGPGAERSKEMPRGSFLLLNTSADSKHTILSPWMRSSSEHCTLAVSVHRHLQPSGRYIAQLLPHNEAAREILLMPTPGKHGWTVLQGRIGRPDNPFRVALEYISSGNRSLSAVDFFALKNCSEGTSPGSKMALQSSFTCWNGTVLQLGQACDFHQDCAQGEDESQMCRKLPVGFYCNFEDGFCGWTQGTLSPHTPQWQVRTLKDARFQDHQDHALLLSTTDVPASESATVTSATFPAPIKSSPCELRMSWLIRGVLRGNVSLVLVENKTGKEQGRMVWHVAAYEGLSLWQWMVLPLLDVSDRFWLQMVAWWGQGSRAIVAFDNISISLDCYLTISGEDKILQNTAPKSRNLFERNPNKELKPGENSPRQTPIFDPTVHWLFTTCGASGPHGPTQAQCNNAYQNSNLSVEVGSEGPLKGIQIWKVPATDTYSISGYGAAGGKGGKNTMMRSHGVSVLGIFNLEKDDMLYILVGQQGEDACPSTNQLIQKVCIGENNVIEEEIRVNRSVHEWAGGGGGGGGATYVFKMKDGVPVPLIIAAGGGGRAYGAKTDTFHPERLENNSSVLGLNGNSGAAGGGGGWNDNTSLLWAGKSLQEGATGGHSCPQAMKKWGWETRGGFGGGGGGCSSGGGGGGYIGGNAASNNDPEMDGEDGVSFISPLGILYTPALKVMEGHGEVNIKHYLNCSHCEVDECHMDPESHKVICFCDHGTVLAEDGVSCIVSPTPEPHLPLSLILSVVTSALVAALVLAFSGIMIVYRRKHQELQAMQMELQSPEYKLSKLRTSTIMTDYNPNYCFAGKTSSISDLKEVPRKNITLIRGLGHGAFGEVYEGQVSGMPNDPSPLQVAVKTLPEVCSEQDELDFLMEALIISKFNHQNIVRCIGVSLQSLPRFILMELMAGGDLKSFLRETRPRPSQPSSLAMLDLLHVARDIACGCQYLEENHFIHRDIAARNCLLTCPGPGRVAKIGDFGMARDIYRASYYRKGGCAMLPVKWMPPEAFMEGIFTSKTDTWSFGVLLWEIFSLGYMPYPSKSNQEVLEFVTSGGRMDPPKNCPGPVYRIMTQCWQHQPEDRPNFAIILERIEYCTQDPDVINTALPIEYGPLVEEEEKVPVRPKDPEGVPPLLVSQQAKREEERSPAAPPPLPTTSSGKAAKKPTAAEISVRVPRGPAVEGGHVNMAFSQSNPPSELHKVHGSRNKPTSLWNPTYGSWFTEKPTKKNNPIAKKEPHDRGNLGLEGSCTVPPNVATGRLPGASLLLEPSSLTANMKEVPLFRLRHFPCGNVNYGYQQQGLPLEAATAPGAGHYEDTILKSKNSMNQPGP

What is called IC50 is the midpoint of a concentration-inhibition curve. On to `Cc1cc(Nc2ncc(Cl)c(Nc3cn(C)nc3S(=O)(=O)C(C)C)n2)c(OC2CC2)cc1C1=CCNCC1` [Final product 25], for which the IC50 came out at 5 nM at L1196M mutant ALK kinase and 12 nM with Karpas-299 cell line.
Take `CC(C)S(=O)(=O)c1nn(C2CC2)cc1Nc1nc(Nc2cc(Cl)c(C3CCN(C)CC3)cc2OC2CC2)ncc1Cl` [Final product 48]: the IC50 at L1196M mutant ALK kinase was 5 nM; in the assay on Karpas-299 cell line it was 41 nM.
With `CC(C)S(=O)(=O)c1nn(C2CC2)cc1Nc1nc(Nc2cc(F)c(C3CCNCC3)cc2OC2CC2)ncc1Cl` [Final product 21], the IC50 worked out at 2 nM at L1196M mutant ALK kinase and 10 nM in the assay on Karpas-299 cell line.
`Cc1cc(Nc2ncc(Cl)c(Nc3cn(C)nc3S(=O)(=O)C(C)C)n2)c(OC2CC2)cc1C1CCN(C(=O)CC#N)CC1` [Final product 166, 1-cyano acetyl-4-(4-(5-chloro-4-(3-(isopropylsulfonyl)-1-methyl-1H-pyrazol-4-amino)pyrimidin-2-amine)-5-cyclopropoxy-2-methylphenyl)piperidine]: the IC50 at L1196M mutant ALK kinase was 6 nM; in the assay on Karpas-299 cell line, 8 nM.
Regarding `Cc1cc(Nc2ncc(Cl)c(Nc3cn(C)nc3S(=O)(=O)C(C)C)n2)c(OC2CC2)cc1C1CCN(C(=O)CN(C)C)CC1` [Final product 165, 1-(2-dimethylamino)acetyl-4-(4-(5-chloro-4-(3-(isopropylsulfonyl)-1-methyl-1H-pyrazol-4-amino)pyrimidin-2-amino)-5-cyclopropoxy-2-methylphenyl)piperidine], the IC50 at L1196M mutant ALK kinase and in the assay on Karpas-299 cell line was 3 nM in each case.
As for `Cc1cc(Nc2ncc(Cl)c(Nc3cn(C)nc3S(=O)(=O)C(C)C)n2)c(OC2CC2)cc1[C@H]1CC[C@H](NC(C)C)CC1` [Final product 198], the half-maximal inhibitory concentration (IC50) at L1196M mutant ALK kinase is 9 nM; with Karpas-299 cell line, 5 nM.
With `CC(C)S(=O)(=O)c1nn(C2CC2)cc1Nc1nc(Nc2ccc(C3CCN(C)CC3)cc2OC2CC2)ncc1Cl` [Final product 42], the half-maximal inhibitory concentration (IC50) at L1196M mutant ALK kinase and in the assay with Karpas-299 cell line was 3 nM each time.
For the compound `CC(C)CS(=O)(=O)c1nn(C)cc1Nc1nc(Nc2ccc(C3CCNC3)cc2OC2CC2)ncc1Cl` (stereo not shown) [Final product 18], the IC50 is 4 nM on L1196M mutant ALK kinase and 28 nM with Karpas-299 cell line.
Regarding `Cc1cc(Nc2ncc(Cl)c(Nc3cn(C4CC4)nc3S(=O)(=O)C(C)C)n2)c(OC(C)C)cc1C1CCNCC1` [Final product 5], the results for the IC50 on L1196M mutant ALK kinase and in the assay with Karpas-299 cell line were 12 nM and 37 nM, respectively.
Take `Cc1cc(Nc2ncc(Cl)c(Nc3cn(C)nc3S(=O)(=O)C(C)C)n2)c(OC2CC2)cc1C1=C(Cl)CN(C)CC1` [Final product 208, 5-chloro-N^2-[4-(5-chloro-1-methyl-1,2,3,6-tetrahydro-pyridin-4-yl)-2-cyclopropoxy-5-methyl-phenyl]-N^4-[1-methyl-3-(isopropylsulfonyl)-1H-pyrazol-4-yl]-pyrimidin-2,4-diamine]: the IC50 at L1196M mutant ALK kinase worked out at 36 nM; in the assay on Karpas-299 cell line it was 35 nM.
As for `Cc1cc(Nc2ncc(Cl)c(Nc3cn(C)nc3S(=O)(=O)CC(C)C)n2)c(OC(C)C)cc1C1CCNCC1` [Final product 6], the IC50 on L1196M mutant ALK kinase came out at 7 nM; in the assay on Karpas-299 cell line it was 24 nM.
With `CCN(CC)[C@H]1CC[C@H](c2cc(OC3CC3)c(Nc3ncc(Cl)c(Nc4cn(C)nc4S(=O)(=O)CC(C)C)n3)cc2C)CC1` [Final product 178], the values for the IC50 on L1196M mutant ALK kinase and in the assay with Karpas-299 cell line were 17 nM and 18 nM, respectively.
For `Cc1cc(Nc2ncc(Cl)c(Nc3cn(C)nc3S(=O)(=O)C(C)C)n2)c(C(F)(F)F)cc1C1CCNCC1` [Final product 11], in that order: 39 nM and 61 nM.
`Cc1cc(Nc2ncc(Cl)c(Nc3cn(C)nc3S(=O)(=O)C(C)C)n2)c(OC(C)C)cc1C1CN(S(C)(=O)=O)C1` [Final product 168]: the IC50 at L1196M mutant ALK kinase stood at 25 nM; with Karpas-299 cell line, 68 nM.
For `CC(C)S(=O)(=O)c1nn(C)cc1Nc1nc(Nc2cc(F)c(C3CCN(C)C3)cc2OC2CC2)ncc1Cl` (stereo not shown) [Final product 45], in that order: 10 nM and 19 nM.
For `Cc1cc(Nc2ncc(Cl)c(Nc3cn(C)nc3S(=O)(=O)C(C)C)n2)c(OC(C)C)cc1C1CCN(C(C)C)CC1` [Final product 126], in that order: 12 nM and 12 nM.
As to `Cc1cc(Nc2ncc(Cl)c(Nc3cn(C)nc3S(=O)(=O)C(C)C)n2)c(OC2CC2)cc1C1CCN(C(=O)C(C)(C)C)CC1` [Final product 164, 1-pivaloyl-4-(4-(5-chloro-4-(3-(isopropylsulfonyl)-1-methyl-1H-pyrazol-4-amino)pyrimidin-2-amine)-5-cyclopropoxy-2-methylphenyl)piperidine], the values for the IC50 on L1196M mutant ALK kinase and in the assay on Karpas-299 cell line were 56 nM and 15 nM, respectively.
`Cc1cc(Nc2ncc(Cl)c(Nc3cn(C)nc3S(=O)(=O)C(C)C)n2)c(OC2CC2)cc1C1CCN(C(=O)C2CC2)CC1` [Final product 162, 1-cyclopropylformyl-4-(4-(5-chloro-4-(3-(isopropylsulfonyl)-1-methyl-1H-pyrazol-4-amino)pyrimidin-2-amine)-5-cyclopropoxy-2-methylphenyl)piperidine]: the IC50 on L1196M mutant ALK kinase worked out at 21 nM; in the assay on Karpas-299 cell line it was 24 nM.
For `CCNC(=O)N1CCC(c2cc(OC3CC3)c(Nc3ncc(Cl)c(Nc4cn(C)nc4S(=O)(=O)C(C)C)n3)cc2C)CC1` [Final product 174, 4-(4-(5-chloro-4-(3-(isopropylsulfonyl)-1-methyl-1H-pyrazol-4-amine)pyrimidin-2-amine)-5-cyclopropoxy-2-methyl-phenyl)-N-ethyl-piperidin-1-carboxamide], in that order: 6 nM and 20 nM.
As for `Cc1cc(Nc2ncc(Cl)c(Nc3cn(C)nc3S(=O)(=O)CC(C)C)n2)c(OC2CC2)cc1C1CN(S(C)(=O)=O)C1` [Final product 171], the IC50 on L1196M mutant ALK kinase came out at 156 nM; in the assay with Karpas-299 cell line, 69 nM.
As to `Cc1cc(Nc2ncc(Cl)c(Nc3cn(C)nc3S(=O)(=O)C(C)C)n2)c(OC(C)C)cc1C1CCN(C)C1` (stereo not shown) [Final product 37], the IC50 was determined as 4 nM on L1196M mutant ALK kinase and 11 nM in the assay with Karpas-299 cell line.
As to `Cc1cc(Nc2ncc(Cl)c(Nc3cn(C)nc3S(=O)(=O)CC(C)C)n2)c(OC2CC2)cc1[C@H]1CC[C@H](NC2CC2)CC1` [Final product 180], the half-inhibitory concentration (IC50) amounted to 40 nM on L1196M mutant ALK kinase and 26 nM with Karpas-299 cell line.
For `CC(=O)N1CCN([C@H]2CC[C@H](c3cc(OC4CC4)c(Nc4ncc(Cl)c(Nc5cn(C)nc5S(=O)(=O)C(C)C)n4)cc3C)CC2)CC1` [Final product 204], the half-inhibitory concentration (IC50) on L1196M mutant ALK kinase turned out to be 18 nM; with Karpas-299 cell line it was 7 nM.
For the compound `CC(C)S(=O)(=O)c1nn(C)cc1Nc1nc(Nc2ccc(C3=CCNCC3)cc2OC2CC2)ncc1Cl` [Final product 14], the concentration for half-maximal inhibition (IC50) at L1196M mutant ALK kinase was 6 nM; in the assay on Karpas-299 cell line, 19 nM.
Consider `Cc1cc(Nc2ncc(Cl)c(Nc3cn(C)nc3S(=O)(=O)C(C)C)n2)c(OC(C)C)cc1[C@H]1CC[C@H](NC(C)C)CC1` [Final product 188], for which the IC50 on L1196M mutant ALK kinase was 8 nM; with Karpas-299 cell line it was 10 nM.
For `CCOc1cc(C2CCN(CCO)CC2)c(C)cc1Nc1ncc(Cl)c(Nc2cn(C)nc2S(=O)(=O)C(C)C)n1` [Final product 135], in that order: 7 nM and 3 nM.
On to `Cc1cc(Nc2ncc(Cl)c(Nc3cn(C)nc3S(=O)(=O)C(C)C)n2)c(OC(CF)CF)cc1C1CCNCC1` [Final product 8], for which the figures for the IC50 at L1196M mutant ALK kinase and in the assay with Karpas-299 cell line were 10 nM and 67 nM, respectively.
`CC(C)S(=O)(=O)c1nn(C)cc1Nc1nc(Nc2ccc(C3CCNCC3)cc2OC(F)(F)F)ncc1Cl` [Final product 9]: the results for the IC50 at L1196M mutant ALK kinase and in the assay on Karpas-299 cell line were 35 nM and 119 nM, respectively.
On to `Cc1cc(Nc2ncc(Cl)c(Nc3cn(C)nc3S(=O)(=O)C(C)C)n2)c(OC2CC2)cc1C1CCNCC1` [Final product 24], for which the IC50 on L1196M mutant ALK kinase was 4 nM; with Karpas-299 cell line, 9 nM.
Regarding `CC(C)S(=O)(=O)c1nn(C)cc1Nc1nc(Nc2cc(C#N)c(C3CCNCC3)cc2OC2CC2)ncc1Cl` [Final product 29], the IC50 is 7 nM on L1196M mutant ALK kinase and 35 nM with Karpas-299 cell line.
Turning to `CC(C)S(=O)(=O)c1nn(C2CC2)cc1Nc1nc(Nc2cc(F)c(C3CCN(C)CC3)cc2OC2CC2)ncc1Cl` [Final product 46], at L1196M mutant ALK kinase, the IC50 was determined as 6 nM.
